Data taken from EPA's ToxValDB 9.5 (doi:10.2903/j.efsa.2015.4043).
Converted amounts (≈) assume the structure as drawn.

Columns and labels:
Anas platyrhynchos = conditions: reproductive
Apis mellifera = conditions: acute, mortality
Colinus virginianus = conditions: acute, oral, mortality
Cyprinus carpio = conditions: acute; duration: 96 hours; mortality
Gammaridae = conditions: chronic/long-term; duration: 28 days
Pimephales promelas = conditions: chronic/long-term; duration: 32 days; growth

Structure (SMILES): Cn1cc(C(=O)Nc2cccc3c2[C@@H]2CC[C@H]3C2=C(Cl)Cl)c(C(F)F)n1 [Benzovindiflupyr]
- NOEC (Anas platyrhynchos): 25 mg/kg-day
- LD50 (Apis mellifera; dermal): > 100 µg/piece
- LD50 (Apis mellifera; oral, unspecified): > 109 µg/piece
- LC50 (Colinus virginianus; diet): > 1170 mg/kg-day
- LD50 (Colinus virginianus): 1320 mg/kg
- LC50 (Cyprinus carpio): 3.5 ng/mL (≈ 0.00879 µM)
- NOEC (Gammaridae): 4.1 mg/kg
- LC50 (Neomysis kadiakensis; acute, duration: 96 hours, mortality): 0.056 mg/L (≈ 0.141 µM)
- NOEC (Neomysis kadiakensis; chronic/long-term, duration: 28 days, reproduction): 0.0074 mg/L
- NOEC (Pimephales promelas): 0.00095 mg/L
- LC50 (Pontoscolex corethrurus; acute, duration: 14 days, mortality): 406 mg/kg
- NOEC (Pontoscolex corethrurus; chronic/long-term, duration: 8 weeks): 7.81 mg/kg
- LD50 (Rattus norvegicus; acute, mortality): 55 mg/kg
- NOAEL (Rattus norvegicus; acute, neurology): 10 mg/kg-day
- NOAEL (Rattus norvegicus; chronic): 6.8 mg/kg-day
- NOAEL (Rattus norvegicus; chronic, duration: 2 years, histopathology: nonneoplastic): 4.88 mg/kg-day
- NOAEL (Rattus norvegicus; reproduction developmental, M/F, reproduction): 6.8 mg/kg-day
- NOAEL (Rattus norvegicus; subchronic, duration: 90 days, oral, organ weight): 7.6 mg/kg-day
